According to patent US10202361B2, “Pyridazinones as herbicides” (E I DU PONT DE NEMOURS AND COMPANY, priority 2014, dated 2019):
Like-named read-outs stand apart in the source and are kept apart here.

Legend:
Format in all cases: in vivo
[1] = tested on: barnyardgrass (Echinochloa crus-galli); test: Test C pre-/postemergence greenhouse herbicide test; conditions: Barnyardgrass
From the text: (§1) Seeds of plant species selected from blackgrass (Alopecurus myosuroides), bromegrass, downy (downy bromegrass, Bromus tectorum), foxtail, green (green foxtail, Setaria viridis), ryegrass, Italian (Italian ryegrass, Lolium multiflorum), wheat (winter wheat, Triticum aestivum), oat, wild (wild oat, Avena fatua), galium (catchweed bedstraw, Galium aparine), bermudagrass (Cynodon dactylon), surinam grass (Brachiaria decumbens), cocklebur (common cocklebur, Xanthium strumarium), corn (Zea mays), crabgrass, large (large crabgrass, Digitaria sanguinalis), cupgrass, woolly (woolly cupgrass, Eriochloa villosa), foxtail, giant (giant foxtail, Setaria faberii), goosegrass (Eleusine indica), johnsongrass (Sorghum halepense), kochia (Kochia scoparia), lambsquarters (Chenopodium album), morningglory (Ipomoea coccinea), nightshade (eastern black nightshade, Solanum ptycanthum), nutsedge, yellow (yellow nutsedge, Cyperus esculentus), pigweed (Amaranthus retroflexus), ragweed (common ragweed, Ambrosia elatior), soybean (Glycine max), sunflower (common oilseed sunflower, Helianthus annuus), Russian thistle (Salsola kali), barnyardgrass (Echinochloa crus-galli), oilseed rape (Brassica napus), waterhemp (common waterhemp, Amaranthus rudis), and velvetleaf (Abutilon theophrasti) were planted into a blend of loam soil and sand and treated preemergence with test chemicals formulated in a non-phytotoxic solvent mixture which included a surfactant.
(§2) At the same time, plants selected from these crop and weed species and also barley (winter barley, Hordeum vulgare), canarygrass (Phalaris minor), windgrass (Apera spica-venti), deadnettle (henbit deadnettle, Lamium amplexicaule), and chickweed (common chickweed, Stellaria media) were planted in pots containing Redi-Earth® planting medium (Scotts Company, 14111 Scottslawn Road, Marysville, Ohio 43041) comprising spaghnum peat moss, vermiculite, wetting agent and starter nutrients and treated with postemergence applications of test chemicals formulated in the same manner. Plants ranged in height from 2 to 18 cm (1- to 4-leaf stage) for postemergence treatments. Treated plants and controls were maintained in a greenhouse for 13 to 15 d, after which time all species were compared to controls and visually evaluated. Plant response ratings, summarized in Table C, are based on a scale of 0 to 100 where 0 is no effect and 100 is complete control. A dash (-) response means no test result.

[2] = tested on: galium (catchweed bedstraw, Galium aparine); test: as above; conditions: Galium, read-out: Plant response rating; for pest or weed control at 31 g/ha: 31 g ai/ha; for pest or weed control at 62 g/ha: 62 g ai/ha; for pest or weed control at 125 g/ha: 125 g ai/ha; for pest or weed control at 250 g/ha: 250 g ai/ha
From the text: as §1, §2

[3] = tested on: corn (Zea mays); test: Test A pre-/postemergence greenhouse herbicide test; conditions: Zea mays, 240 h, 0 to 100 scale (0 no effect, 100 complete control), approx. 10 d; for Corn plant response rating (crop injury, 0 = no effect, 100 = complete kill) at 125 g/ha: 125 g ai/ha; for Corn plant response rating (crop injury, 0 = no effect, 100 = complete kill) at 500 g/ha: 500 g ai/ha
How it was run: (§3)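 Seeds sown in loam–sand blend received a directed preemergence soil spray; postemergence spray was applied at the same time to plants 2–10 cm tall at one- to two-leaf stage. Compounds were in non-phytotoxic solvent with surfactant. Visual injury versus untreated controls after ~10 d in greenhouse, 0–100 scale (100 = complete control).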

[4] = tested on: pigweed (Amaranthus retroflexus); test: as above; conditions: Amaranthus retroflexus, 240 h, 0 to 100 scale (0 no effect, 100 complete control), approx. 10 d, read-out: Plant response rating, Pigweed; for pest or weed control at 125 g/ha: 125 g ai/ha; for pest or weed control at 500 g/ha: 500 g ai/ha
How it was run: as §3

[5] = tested on: velvetleaf (Abutilon theophrasti); test: as above; conditions: Abutilon theophrasti, 240 h, 0 to 100 scale (0 no effect, 100 complete control), approx. 10 d, read-out: Plant response rating, Velvetleaf; for pest or weed control at 125 g/ha: 125 g ai/ha; for pest or weed control at 500 g/ha: 500 g ai/ha
How it was run: as §3

[6] = tested on: wheat (Triticum aestivum); test: as above; conditions: Triticum aestivum, 240 h, 0 to 100 scale (0 no effect, 100 complete control), approx. 10 d, read-out: Plant response rating, Wheat; for plant injury at 125 g/ha: 125 g ai/ha; for plant injury at 500 g/ha: 500 g ai/ha
How it was run: as §3

[7] = tested on: barnyardgrass (Echinochloa crus-galli); test: as above; conditions: Echinochloa crus-galli, 240 h, 0 to 100 scale (0 no effect, 100 complete control), approx. 10 d, read-out: Plant response rating, Barnyardgrass; for pest or weed control at 125 g/ha: 125 g ai/ha; for pest or weed control at 500 g/ha: 500 g ai/ha
How it was run: as §3

[8] = tested on: crabgrass, Large (large crabgrass, Digitaria sanguinalis); test: as above; conditions: Digitaria sanguinalis, 240 h, 0 to 100 scale (0 no effect, 100 complete control), approx. 10 d, read-out: Plant response rating, Crabgrass, Large; for pest or weed control at 125 g/ha: 125 g ai/ha; for pest or weed control at 500 g/ha: 500 g ai/ha
How it was run: as §3

[9] = tested on: foxtail, giant (giant foxtail, Setaria faberii); test: as above; conditions: Setaria faberi, 240 h, 0 to 100 scale (0 no effect, 100 complete control), approx. 10 d, read-out: Plant response rating, Foxtail, Giant; for pest or weed control at 125 g/ha: 125 g ai/ha; for pest or weed control at 500 g/ha: 500 g ai/ha
How it was run: as §3

With `Cc1cc(=O)n(-c2ccc(F)cc2)nc1Cc1ccnc(C(F)(F)F)c1` [Compound 1, 2-(4-fluorophenyl)-5-methyl-6-[[2-(trifluoromethyl)-4-pyridinyl]methyl]-3(2H)-pyridazinone] the Plant response rating ([1]; Postemergence, 31 g ai/ha) was 10, the Plant response rating ([1]; Postemergence, 62 g ai/ha) was 10 and the Plant response rating ([1]; Postemergence, 125 g ai/ha) was 10. The Plant response rating ([1]; Postemergence, 250 g ai/ha) was 10, the Plant response rating ([1]; Preemergence, 31 g ai/ha) was 35 and the Plant response rating ([1]; Preemergence, 62 g ai/ha) was 85. For the same compound, the Plant response rating ([1]; Preemergence, 125 g ai/ha) was 100, the Plant response rating ([1]; Preemergence, 250 g ai/ha) was 100 and the pest or weed control at 31 g/ha ([2]; post-emergence, Postemergence) was 40%. It also gave a pest or weed control at 62 g/ha ([2]; post-emergence, Postemergence) of 65%, a pest or weed control at 125 g/ha ([2]; post-emergence, Postemergence) of 70% and a pest or weed control at 250 g/ha ([2]; post-emergence, Postemergence) of 70%. For the same compound, the pest or weed control at 31 g/ha ([2]; pre-emergence, Preemergence) was 95%, the pest or weed control at 62 g/ha ([2]; pre-emergence, Preemergence) was 100% and the pest or weed control at 125 g/ha ([2]; pre-emergence, Preemergence) was 100%. It also gave a pest or weed control at 250 g/ha ([2]; pre-emergence, Preemergence) of 100%, a Corn plant response rating (crop injury, 0 = no effect, 100 = complete kill) at 125 g/ha ([3]; post-emergence, Postemergence) of 90% and a Corn plant response rating (crop injury, 0 = no effect, 100 = complete kill) at 500 g/ha ([3]; post-emergence, Postemergence) of 90%. It also gave a Corn plant response rating (crop injury, 0 = no effect, 100 = complete kill) at 125 g/ha ([3]; pre-emergence, Preemergence) of 0%, a Corn plant response rating (crop injury, 0 = no effect, 100 = complete kill) at 500 g/ha ([3]; pre-emergence, Preemergence) of 90% and a pest or weed control at 125 g/ha ([4]; post-emergence, Postemergence) of 100%. The pest or weed control at 500 g/ha ([4]; post-emergence, Postemergence) was 100%, the pest or weed control at 125 g/ha ([4]; pre-emergence, Preemergence) was 100% and the pest or weed control at 500 g/ha ([4]; pre-emergence, Preemergence) was 100%. It also gave a pest or weed control at 125 g/ha ([5]; post-emergence, Postemergence) of 40%, a pest or weed control at 500 g/ha ([5]; post-emergence, Postemergence) of 100% and a pest or weed control at 125 g/ha ([5]; pre-emergence, Preemergence) of 0%. The pest or weed control at 500 g/ha ([5]; pre-emergence, Preemergence) was 90%, the plant injury at 125 g/ha ([6]; post-emergence, Postemergence) was 60% and the plant injury at 500 g/ha ([6]; post-emergence, Postemergence) was 90%. The plant injury at 125 g/ha ([6]; pre-emergence, Preemergence) was 0%, the plant injury at 500 g/ha ([6]; pre-emergence, Preemergence) was 90% and the pest or weed control at 125 g/ha ([7]; post-emergence, Postemergence) was 100%. For the same compound, the pest or weed control at 500 g/ha ([7]; post-emergence, Postemergence) was 100%, the pest or weed control at 125 g/ha ([7]; pre-emergence, Preemergence) was 100% and the pest or weed control at 500 g/ha ([7]; pre-emergence, Preemergence) was 100%. For the same compound, the pest or weed control at 125 g/ha ([8]; post-emergence, Postemergence) was 90%, the pest or weed control at 500 g/ha ([8]; post-emergence, Postemergence) was 100% and the pest or weed control at 125 g/ha ([8]; pre-emergence, Preemergence) was 100%. The pest or weed control at 500 g/ha ([8]; pre-emergence, Preemergence) was 100%, the pest or weed control at 125 g/ha ([9]; post-emergence, Postemergence) was 90% and the pest or weed control at 500 g/ha ([9]; post-emergence, Postemergence) was 100%. For the same compound, the pest or weed control at 125 g/ha ([9]; pre-emergence, Preemergence) was 100% and the pest or weed control at 500 g/ha ([9]; pre-emergence, Preemergence) was 100%.
